SMILES strings stand for the structures. pEC50, pIC50: −log10 of the molar value.

The text below walks through data of patent US20090155209A1, “NOVEL MACROCYCLIC INHIBITORS OF HEPATITIS C VIRUS REPLICATION” (priority 2007, published 2009).

The target of test [1] is T1, NS3-NS4 (Hepatitis C virus genotype 1a, UniProt P27958). Kind of test: NS3-NS4 activity, IC50 (Example 37, Table 8). Type of test: biochemical.
For test [2], the target named is T1, NS3-NS4. Kind of test: cell-based. The following applies: EC50, NS3-NS4 activity.

T1 sequence (P27958 1027-1657): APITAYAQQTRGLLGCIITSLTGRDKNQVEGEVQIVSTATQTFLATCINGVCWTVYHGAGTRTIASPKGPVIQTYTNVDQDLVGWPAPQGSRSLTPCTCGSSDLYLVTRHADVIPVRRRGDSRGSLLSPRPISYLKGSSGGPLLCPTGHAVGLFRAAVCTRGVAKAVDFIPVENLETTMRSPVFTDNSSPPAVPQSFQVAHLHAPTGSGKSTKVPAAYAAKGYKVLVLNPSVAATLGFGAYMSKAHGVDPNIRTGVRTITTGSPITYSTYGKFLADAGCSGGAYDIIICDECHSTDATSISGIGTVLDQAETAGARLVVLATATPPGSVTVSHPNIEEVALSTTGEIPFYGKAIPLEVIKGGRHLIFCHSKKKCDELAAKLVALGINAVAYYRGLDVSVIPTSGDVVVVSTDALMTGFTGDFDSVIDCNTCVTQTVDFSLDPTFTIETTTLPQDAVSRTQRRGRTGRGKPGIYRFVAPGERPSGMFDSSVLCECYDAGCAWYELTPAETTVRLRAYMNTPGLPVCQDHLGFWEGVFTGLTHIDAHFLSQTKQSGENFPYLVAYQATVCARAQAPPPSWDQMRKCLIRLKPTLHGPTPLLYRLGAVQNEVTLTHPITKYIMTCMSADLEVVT
T1 sequence (P27958 1658-1711): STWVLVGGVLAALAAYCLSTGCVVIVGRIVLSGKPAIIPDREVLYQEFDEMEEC

The term pIC50 denotes the IC50 on a negative log10 scale, so that one unit is a factor of ten. High values mean a small IC50, low ones a large IC50. As usually defined, the pEC50 is the EC50 on a negative log10 scale, so that one unit is a factor of ten. `CC(C)(C)OC(=O)N[C@H]1CCCCC/C=C\C2CC2(C(=O)NOc2ccccc2)NC(=O)[C@@H]2C[C@@H](OC(=O)N3Cc4cccc(F)c4C3)CN2C1=O` (stereo in doubt) [Compound 101, (2R,6S,13aS,14aR,16aS,Z)-6-(tert-butoxycarbonylamino)-5,16-dioxo-14a-(phenoxycarbamoyl)-1,2,3,5,6,7,8,9,10,11,13a,14,14a,15,16,16a-hexadecahydrocyclopropa[e]pyrrolo[1,2-a][1,4]diazacyclopentadecin-2-yl 4-fluoroisoindoline-2-carboxylate]: the pIC50 on NS3-NS4 [1] was above 7.00. This compound had a pEC50 on NS3-NS4 [2] above 7.00. Take `CC(C)(C)OC(=O)N[C@H]1CCCCC/C=C\[C@@H]2C[C@@]2(C(=O)NOCC2CC2)NC(=O)[C@@H]2C[C@@H](OC(=O)N3Cc4cccc(F)c4C3)CN2C1=O` [Compound 102, (2R,6S,13aS,14aR,16aS,Z)-6-(tert-butoxycarbonylamino)-14a-(cyclopropylmethoxycarbamoyl)-5,16-dioxo-1,2,3,5,6,7,8,9,10,11,13a,14,14a,15,16,16a-hexadecahydrocyclopropa[e]pyrrolo[1,2-a][1,4]diazacyclopentadecin-2-yl 4-fluoroisoindoline-2-carboxylate]: the pEC50 on NS3-NS4 [2] is above 7.00. Regarding `CC(C)(C)ONC(=O)[C@@]12C[C@H]1/C=C\CCCCC[C@H](NC(=O)OC(C)(C)C)C(=O)N1C[C@H](OC(=O)N3Cc4cccc(F)c4C3)C[C@H]1C(=O)N2` [Compound 103, (2R,6S,13aS,14aR,16aS,Z)-14a-(tert-butoxycarbamoyl)-6-(tert-butoxycarbonylamino)-5,16-dioxo-1,2,3,5,6,7,8,9,10,11,13a,14,14a,15,16,16a-hexadecahydrocyclopropa[e]pyrrolo[1,2-a][1,4]diazacyclopentadecin-2-yl 4-fluoroisoindoline-2-carboxylate], on NS3-NS4 [2], the pEC50 is above 7.00. Regarding `CONC(=O)[C@@]12C[C@H]1/C=C\CCCCC[C@H](NC(=O)OC(C)(C)C)C(=O)N1C[C@H](OC(=O)N3Cc4cccc(F)c4C3)C[C@H]1C(=O)N2` [Compound 104, (2R,6S,13aS,14aR,16aS,Z)-6-(tert-butoxycarbonylamino)-14a-(methoxycarbamoyl)-5,16-dioxo-1,2,3,5,6,7,8,9,10,11,13a,14,14a,15,16,16a-hexadecahydrocyclopropa[e]pyrrolo[1,2-a][1,4]diazacyclopentadecin-2-yl 4-fluoroisoindoline-2-carboxylate], the pIC50 against NS3-NS4 [1] is above 7.00. In addition, the pEC50 at NS3-NS4 [2] was 5.00 to 6.00.

On to `CC(C)(C)OC(=O)N[C@H]1CCCCC/C=C\[C@@H]2C[C@@]2(C(=O)NOCc2ccc(C(F)(F)F)cc2)NC(=O)[C@@H]2C[C@@H](OC(=O)N3Cc4cccc(F)c4C3)CN2C1=O` [Compound 105, (2R,6S,13aS,14aR,16aS,Z)-6-(tert-butoxycarbonylamino)-5,16-dioxo-14a-(4-(trifluoromethyl)benzyloxycarbamoyl)-1,2,3,5,6,7,8,9,10,11,13a,14,14a,15,16,16a-hexadecahydrocyclopropa[e]pyrrolo[1,2-a][1,4]diazacyclopentadecin-2-yl 4-fluoroisoindoline-2-carboxylate], for which the pIC50 against NS3-NS4 [1] is above 7.00. The pEC50 on NS3-NS4 [2] was 4.30 to 5.00. Taken in the same sequence, the figures for `CC(C)(C)OC(=O)N[C@H]1CCCCC/C=C\[C@@H]2C[C@@]2(C(=O)NOCCO)NC(=O)[C@@H]2C[C@@H](OC(=O)N3Cc4cccc(F)c4C3)CN2C1=O` [Compound 106] were above 7.00 and 6.00 to 7.00. Regarding `CC(C)(C)OC(=O)N[C@H]1CCCCC/C=C\[C@@H]2C[C@@]2(C(=O)NOCc2ccccc2)NC(=O)[C@@H]2C[C@@H](OC(=O)N3Cc4cccc(F)c4C3)CN2C1=O` [Compound 107], the pIC50 at NS3-NS4 [1] is above 7.00. Also, on NS3-NS4 [2], the pEC50 is 5.00 to 6.00.

`CC(C)(C)ONC(=O)[C@@]12C[C@H]1/C=C\CCCCC[C@H](NC(=O)OC(C)(C)C)C(=O)N1C[C@H](OC(=O)N3Cc4cccc(Cl)c4C3)C[C@H]1C(=O)N2` [Compound 108] showed a pIC50 on NS3-NS4 [1] above 7.00. The compound also gave a pEC50 at NS3-NS4 [2] above 7.00. The compound `C[C@H](O)CONC(=O)[C@@]12C[C@H]1/C=C\CCCCC[C@H](NC(=O)OC(C)(C)C)C(=O)N1C[C@H](OC(=O)N3Cc4cccc(F)c4C3)C[C@H]1C(=O)N2` [Compound 110] gave a pIC50 against NS3-NS4 [1] above 7.00. The compound further had a pEC50 on NS3-NS4 [2] above 7.00.

Consider `CC(C)c1cnc(N[C@H]2CCCCC/C=C\[C@@H]3C[C@@]3(C(=O)NS(=O)(=O)C3CC3)NC(=O)[C@@H]3C[C@@H](OC(=O)N4Cc5cccc(F)c5C4)CN3C2=O)s1` [Compound 201, (2R,6S,13aS,14aR,16aS,Z)-14a-(cyclopropylsulfonylcarbamoyl)-6-(5-isopropylthiazol-2-ylamino)-5,16-dioxo-1,2,3,5,6,7,8,9,10,11,13a,14,14a,15,16,16a-hexadecahydrocyclopropa[e]pyrrolo[1,2-a][1,4]diazacyclopentadecin-2-yl 4-fluoroisoindoline-2-carboxylate], for which the pIC50 against NS3-NS4 [1] was above 7.00. The same compound gave a pEC50 on NS3-NS4 [2] above 7.00. The compound `CC(C)(C)O[C@@H]1C[C@H]2C(=O)N[C@]3(C(=O)NS(=O)(=O)C4CC4)C[C@H]3/C=C\CCCCC[C@H](Nc3ncc(-c4ccccc4)s3)C(=O)N2C1` [Compound 202, (2R,6S,13aS,14aR,16aS,Z)-2-tert-butoxy-N-(cyclopropylsulfonyl)-5,16-dioxo-6-(5-phenylthiazol-2-ylamino)-1,2,3,5,6,7,8,9,10,11,13a,14,14a,15,16,16a-hexadecahydrocyclopropa[e]pyrrolo[1,2-a][1,4]diazacyclopentadecine-14a-carboxamide] showed a pIC50 on NS3-NS4 [1] above 7.00. The same compound gave a pEC50 at NS3-NS4 [2] of 6.00 to 7.00. `CC(=O)O[C@@H]1C[C@H]2C(=O)N[C@]3(C(=O)NS(=O)(=O)C4CC4)C[C@H]3/C=C\CCCCC[C@H](Nc3ncc(-c4ccccc4)s3)C(=O)N2C1` [Compound 203, (2R,6S,13aS,14aR,16aS,Z)-14a-(cyclopropylsulfonylcarbamoyl)-5,16-dioxo-6-(5-phenylthiazol-2-ylamino)-1,2,3,5,6,7,8,9,10,11,13a,14,14a,15,16,16a-hexadecahydrocyclopropa[e]pyrrolo[1,2-a][1,4]diazacyclopentadecin-2-yl acetate] gave a pIC50 at NS3-NS4 [1] above 7.00. Also, the pEC50 at NS3-NS4 [2] is 5.00 to 6.00.

The compound `O=C1N[C@]2(C(=O)NS(=O)(=O)C3CC3)C[C@H]2/C=C\CCCCC[C@H](Nc2nc(-c3ccc(F)cc3)cs2)C(=O)N2C[C@H](Oc3nc(-c4ccccc4)nc4ccccc34)C[C@@H]12` [Compound 204, (2R,6S,13aS,14aR,16aS,Z)-N-(cyclopropylsulfonyl)-6-(4-(4-fluorophenyl)thiazol-2-ylamino)-5,16-dioxo-2-(2-phenylquinazolin-4-yloxy)-1,2,3,5,6,7,8,9,10,11,13a,14,14a,15,16,16a-hexadecahydrocyclopropa[e]pyrrolo[1,2-a][1,4]diazacyclopentadecine-14a-carboxamide] gave a pIC50 against NS3-NS4 [1] above 7.00. The same compound gave a pEC50 at NS3-NS4 [2] above 7.00. Compound `O=C1N[C@]2(C(=O)NS(=O)(=O)C3CC3)C[C@H]2/C=C\CCCCC[C@H](Nc2nc3c(s2)CCC3)C(=O)N2C[C@H](OC(=O)N3Cc4cccc(F)c4C3)C[C@@H]12` [Compound 206] showed a pIC50 against NS3-NS4 [1] above 7.00. Besides, the pEC50 at NS3-NS4 [2] is 6.00 to 7.00. Take `O=C1N[C@]2(C(=O)NS(=O)(=O)C3CC3)C[C@H]2/C=C\CCCCC[C@H](Nc2nc(-c3ccc(Cl)cc3)cs2)C(=O)N2C[C@H](OC(=O)N3Cc4cccc(F)c4C3)C[C@@H]12` [Compound 207]: the pIC50 on NS3-NS4 [1] is above 7.00. The pEC50 on NS3-NS4 [2] is above 7.00.

On NS3-NS4 [1], `O=C1N[C@]2(C(=O)NS(=O)(=O)C3CC3)C[C@H]2/C=C\CCCCC[C@H](Nc2nc(-c3ccc(F)cc3)cs2)C(=O)N2C[C@H](OC(=O)N3Cc4cccc(F)c4C3)C[C@@H]12` [Compound 208] gave a pIC50 above 7.00. On NS3-NS4 [2], this compound showed a pEC50 above 7.00. For `CC(C)(C)OC(=O)N[C@H]1CCCCC/C=C\[C@@H]2C[C@@]2(C(=O)NS(=O)(=O)c2ccc(Cl)s2)NC(=O)[C@@H]2C[C@@H](OC(=O)N3Cc4cccc(F)c4C3)CN2C1=O` [Compound 323], on NS3-NS4 [2], the pEC50 is above 7.00.

As for `CCC(C)(C)OC(=O)N[C@H]1CCCCC/C=C\[C@@H]2C[C@@]2(C(=O)NS(=O)(=O)C2CC2)NC(=O)[C@@H]2C[C@@H](OC(=O)N3Cc4cccc(F)c4C3)CN2C1=O` [Compound 431], the pEC50 at NS3-NS4 [2] was above 7.00. Take `CCC(C)(C)OC(=O)N[C@H]1CCCCC/C=C\[C@@H]2C[C@@]2(C(=O)NS(=O)(=O)C2CC2)NC(=O)[C@@H]2C[C@@H](OC(=O)N3Cc4cccc(F)c4C3)CN2C1=O` [Compound 438]: the pEC50 at NS3-NS4 [2] was 6.00 to 7.00.

The compound `CC(C)(C)OC(=O)N[C@H]1CCCCC/C=C\[C@@H]2C[C@@]2(C(=O)NOc2ccc(F)cc2)NC(=O)[C@@H]2C[C@@H](OC(=O)N3Cc4cccc(F)c4C3)CN2C1=O` [Compound 705] had a pIC50 against NS3-NS4 [1] above 7.00. `CC(C)(C)OC(=O)N[C@H]1CCCCC/C=C\[C@@H]2C[C@@]2(C(=O)NOc2cccc(Cl)c2)NC(=O)[C@@H]2C[C@@H](OC(=O)N3Cc4cccc(F)c4C3)CN2C1=O` [Compound 706] gave a pIC50 against NS3-NS4 [1] above 7.00. Consider `CC(C)(C)ONC(=O)[C@@]12C[C@H]1/C=C\CCCCC[C@H](NC(=O)OC(C)(C)C)C(=O)N1C[C@H](OC(=O)N3Cc4cccc(F)c4C3)C[C@H]1C(=O)N2` [Compound 716], for which, on NS3-NS4 [1], the pIC50 was above 7.00. For `CC(C)(C)OC(=O)N[C@H]1CCCCC/C=C\[C@@H]2C[C@@]2(C(=O)NOCC2CC2)NC(=O)[C@@H]2C[C@@H](OC(=O)N3Cc4cccc(F)c4C3)CN2C1=O` [Compound 717], the pIC50 against NS3-NS4 [1] was above 7.00.

As to `Cc1ccccc1ONC(=O)[C@@]12C[C@H]1CCCCCCC[C@H](NC(=O)OC(C)(C)C)C(=O)N1C[C@H](OC(=O)N3Cc4cccc(F)c4C3)C[C@H]1C(=O)N2` [Compound 804], the pIC50 at NS3-NS4 [1] was above 7.00. With `CC(C)(C)OC(=O)N[C@H]1CCCCCC2CC2[C@@H]2C[C@@]2(C(=O)NOc2ccccc2)NC(=O)[C@@H]2C[C@@H](OC(=O)N3Cc4cccc(F)c4C3)CN2C1=O` (stereo partly shown) [Compound 906], the pIC50 at NS3-NS4 [1] was above 7.00. On NS3-NS4 [1], `CC(C)(C)OC(=O)N[C@H]1CCCCCC2C([C@@H]3C[C@@]3(C(=O)NS(=O)(=O)C3CC3)NC(=O)[C@@H]3C[C@@H](OC(=O)N4Cc5cccc(F)c5C4)CN3C1=O)C2(Cl)Cl` (stereo partly shown) [Compound 907] showed a pIC50 of 6.00 to 7.00.
